“And” between values parts separate entries of the source, which are not always exact repeats. Identical values can stand only once.
Key:
[1] = Stability of the five compounds in SD rat plasma (QC samples, UHPLC-ESI-MS/MS); assay type: in vitro ADME; conditions: for stability, Accuracy (measured versus nominal concentration) / stability, mean ± SD (measured concentration): SD rat plasma, n=5
Experimental: The method was validated according to the US Food and Drug Administration (FDA) Bioanalytical Method Validation Guidance as follows: [1] specificity was assessed by analyzing blank plasma, blank plasma spiked with standard solutions and rat plasma samples after oral administration. Each calibration curve was plotted using the concentration of the standard solution as the horizontal coordinate and the ratio of analyte to internal standard peak area as the vertical coordinate. The lower limit of quantification (LLOQ) refers to the lowest concentration, which is typically 10 times the signal-to-noise ratio. It has an acceptable accuracy of ± 20% and a precision of less than 20% [3]. Quality Control (QC) samples (low, medium and high concentrations) were prepared for each analyte. Five samples were analyzed at each concentration level and three consecutive batches were determined to calculate the accuracy and precision of the method. Extraction recovery was assessed by the ratio of the average peak area of routinely prepared QC samples (low, medium, and high concentrations) to the post-extraction plasma sample. Likewise, matrix effect was assessed by the ratio of peak areas between post-extraction samples spiked with analytes and mobile phases spiked with the same concentration of analytes.

in vivo = conditions: male, Sprague Dawley, rat, po, 352 mg/kg
[2] = male, Sprague Dawley, rat, in vivo, po, 352 mg/kg
[3] = nominal 20 ng/mL, 3 freeze-thaw cycles
[4] = nominal 20 ng/mL, 7 days at -80°C
[5] = nominal 20 ng/mL, Room temperature 24h
[6] = nominal 1000 ng/mL, 3 freeze-thaw cycles
[7] = nominal 1000 ng/mL, 7 days at -80°C
[8] = nominal 1000 ng/mL, Room temperature 24h
[9] = nominal 5000 ng/mL, 3 freeze-thaw cycles
[10] = nominal 5000 ng/mL, 7 days at -80°C
[11] = nominal 5000 ng/mL, Room temperature 24h

Stability in plasma, measured concentration (mean ± SD) ([1]; 3 freeze-thaw cycles, QC concentration 20 ng/mL): 21.0 ± 1.74 ng/mL and 21.0437 ng/mL
Stability in plasma, measured concentration (mean ± SD) ([1]; 3 freeze-thaw cycles, QC concentration 1000 ng/mL): 942 ± 21.5 ng/mL and 941.9 ng/mL
Stability in plasma, measured concentration (mean ± SD) ([1]; 3 freeze-thaw cycles, QC concentration 5000 ng/mL): 4532 ± 63.0 ng/mL and 4531.84 ng/mL
Stability in plasma, measured concentration (mean ± SD) ([1]; 7 days at -80°C, QC concentration 20 ng/mL): 20.6 ± 1.03 ng/mL and 20.6026 ng/mL
Stability in plasma, measured concentration (mean ± SD) ([1]; 7 days at -80°C, QC concentration 1000 ng/mL): 920 ± 31.6 ng/mL and 920.324 ng/mL
Stability in plasma, measured concentration (mean ± SD) ([1]; 7 days at -80°C, QC concentration 5000 ng/mL): 4563 ± 143 ng/mL and 4562.63 ng/mL
Stability, measured concentration, mean ± SD ([1]; QC sample 20 ng/mL, 3 freeze-thaw cycles): 21.0 ± 1.74 ng/mL
Stability, measured concentration, mean ± SD ([1]; QC sample 20 ng/mL, 7 days at -80°C): 20.6 ± 1.03 ng/mL
Stability, measured concentration, mean ± SD ([1]; QC sample 20 ng/mL, Room temperature 24h): 21.1 ± 0.78 ng/mL
Stability, measured concentration, mean ± SD ([1]; QC sample 1000 ng/mL, 3 freeze-thaw cycles): 942 ± 21.5 ng/mL
Stability, measured concentration, mean ± SD ([1]; QC sample 1000 ng/mL, 7 days at -80°C): 920 ± 31.6 ng/mL
Stability, measured concentration, mean ± SD ([1]; QC sample 1000 ng/mL, Room temperature 24h): 1003 ± 39.5 ng/mL
Stability, measured concentration, mean ± SD ([1]; QC sample 5000 ng/mL, 3 freeze-thaw cycles): 4532 ± 63.0 ng/mL
Stability, measured concentration, mean ± SD ([1]; QC sample 5000 ng/mL, 7 days at -80°C): 4563 ± 143 ng/mL
Stability, measured concentration, mean ± SD ([1]; QC sample 5000 ng/mL, Room temperature 24h): 4765 ± 218 ng/mL
Stability in plasma, measured concentration (mean ± SD) ([1]; Room temperature 24h, QC concentration 20 ng/mL): 21.1 ± 0.78 ng/mL and 21.1244 ng/mL
Stability in plasma, measured concentration (mean ± SD) ([1]; Room temperature 24h, QC concentration 1000 ng/mL): 1002.91 ng/mL and 1003 ± 39.5 ng/mL
Stability in plasma, measured concentration (mean ± SD) ([1]; Room temperature 24h, QC concentration 5000 ng/mL): 4764.7 ng/mL and 4765 ± 218 ng/mL
stability, Accuracy (measured versus nominal concentration) [1, 3]: 105.22%
stability, mean ± SD (measured concentration) [1, 3]: 21.0 ± 1.74 ng/mL
stability, Accuracy (measured versus nominal concentration) [1, 4]: 103.01%
stability, mean ± SD (measured concentration) [1, 4]: 20.6 ± 1.03 ng/mL
stability, Accuracy (measured versus nominal concentration) [1, 5]: 105.62%
stability, mean ± SD (measured concentration) [1, 5]: 21.1 ± 0.78 ng/mL
stability, Accuracy (measured versus nominal concentration) [1, 6]: 94.19%
stability, mean ± SD (measured concentration) [1, 6]: 942 ± 21.5 ng/mL
stability, Accuracy (measured versus nominal concentration) [1, 7]: 92.03%
stability, mean ± SD (measured concentration) [1, 7]: 920 ± 31.6 ng/mL
stability, Accuracy (measured versus nominal concentration) [1, 8]: 100.29%
stability, mean ± SD (measured concentration) [1, 8]: 1003 ± 39.5 ng/mL
stability, Accuracy (measured versus nominal concentration) [1, 9]: 90.64%
stability, mean ± SD (measured concentration) [1, 9]: 4532 ± 63.0 ng/mL
stability, Accuracy (measured versus nominal concentration) [1, 10]: 91.25%
stability, mean ± SD (measured concentration) [1, 10]: 4563 ± 143 ng/mL
stability, Accuracy (measured versus nominal concentration) [1, 11]: 95.29%
stability, mean ± SD (measured concentration) [1, 11]: 4765 ± 218 ng/mL
AUC(0-inf) (in vivo): 1390 ± 586 ng·h/mL
AUC(0-t) (in vivo): 990 ± 284 ng·h/mL
Cmax (in vivo; Cmax): 222 ± 46.4 ng/mL
MRT last (in vivo; MRT(0-t)): 4.34 ± 0.957 h
half-life (in vivo; t1/2): 5.14 ± 1.8 h
CL [2]: 0.016 ± 0.006 L/h
Vz [2]: 0.114 ± 0.041 L
Compound: C=C1CC[C@@H]2[C@H]3[C@@H](CC[C@H]2C)[C@@H](C)C(=O)O[C@H]13 [ARTI, Arteannuin I]
